# Assay results taken from patent publication US10385108B2, “Peptide analogs of alpha-melanocyte stimulating hormone” (Genzyme Corporation, priority 2008, dated 2019).
# Where a SMILES comes first, the peptide text is derived from it. [ ]: non-standard residue; d: D form. The star is where a group is joined. dBta = N[C@H](Cc1csc2ccccc12)C(=O)O; d2Thi = N[C@H](Cc1cccs1)C(=O)O; NH(CH2)3Ph = c1ccc(CCCN*)cc1
# Biological target: MC1R (Homo sapiens, UniProt Q01726)
# Experiment: Competitive binding with 125I-NDP-MSH, HEK293 membrane preparations, MC1R;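 further: Read-out: receptor-bound radioligand retained by filtration and counted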
# Conditions: not given
# MC1R, sequence (Q01726 whole entry): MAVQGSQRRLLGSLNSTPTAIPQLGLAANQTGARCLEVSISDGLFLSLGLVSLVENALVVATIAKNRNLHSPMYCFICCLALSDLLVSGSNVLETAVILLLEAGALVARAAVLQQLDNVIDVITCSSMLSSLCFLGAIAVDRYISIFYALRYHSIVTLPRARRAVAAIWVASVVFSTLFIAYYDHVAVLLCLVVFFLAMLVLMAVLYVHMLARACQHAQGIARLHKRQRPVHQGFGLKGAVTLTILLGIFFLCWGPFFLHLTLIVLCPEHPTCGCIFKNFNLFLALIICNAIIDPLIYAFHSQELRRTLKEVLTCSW
row,affinity for MC1R compared with parent peptide (in words),Compound
1,no increase in the affinity,"CC(C)[C@@H](N)C(=O)N1CCC[C@@H]1C(=O)N[C@H](CCCCN)C(=O)NCC(=O)N[C@H](Cc1c[nH]c2ccccc12)C(=O)N[C@H](CCCNC(=N)N)C(=O)N[C@H](Cc1ccccc1)C(=O)N[C@H](Cc1c[nH]cn1)C(=O)NCCCc1ccccc1 [compound 847, vpkGwrfh] (H-[dV][dP][dK]G[dW][dR][dF][dH]-{NH(CH2)3Ph})"

# Same assay, conditions: Ki MC1R, competition with 125I-NDP-MSH
row,Ki [nM],Compound
1,1.3,"CCCCCCCCCCCCCCCCCC(=O)N[C@@H](Cc1c[nH]cn1)C(=O)N[C@H](Cc1ccccc1)C(=O)N[C@@H](CCCNC(=N)N)C(=O)N[C@@H](Cc1c[nH]c2ccccc12)C(N)=O [compound 820, (Stearyl) HfRW]"
2,282,"CSCC[C@@](C)(NC(=O)[C@@H](CCC(=O)O)NC(=O)[C@@H](Cc1c[nH]cn1)NC(=O)[C@@H](Cc1ccccc1)NC(=O)[C@@H](CCCNC(=N)N)NC(=O)[C@@H](Cc1c[nH]c2ccccc12)NC(=O)CNC(=O)[C@@H](CCCCN)NC(=O)[C@H]1CCCN1C(=O)[C@H](NC(C)=O)C(C)C)C(=O)N[C@H](CO)C(=O)N[C@H](Cc1ccc(O)cc1)C(=O)N[C@H](CO)C(N)=O [compound 877, vpkGwrfhe(α-methyl-D-Met)sys]"
3,1900,"CSCC[C@@H](NC(=O)[C@@H](CCC(=O)O)NC(=O)[C@@H](Cc1c[nH]c2ccccc12)NC(=O)[C@@H](Cc1ccccc1)NC(=O)[C@@H](CCCNC(=N)N)NC(=O)[C@@H](Cc1c[nH]c2ccccc12)NC(=O)CNC(=O)[C@@H](CCCCN)NC(=O)[C@H]1CCCN1C(=O)[C@H](NC(C)=O)C(C)C)C(=O)N[C@H](CO)C(=O)N[C@H](Cc1ccc(O)cc1)C(=O)N[C@H](CO)C(N)=O [compound 873, vpkGwrfwemsys] (Ac-[dV][dP][dK]G[dW][dR][dF][dW][dE][dM][dS][dY][dS]-NH2)"
4,2300,"CSCC[C@@H](NC(=O)[C@@H](CCC(=O)O)NC(=O)[C@@H](Cc1c[nH]cn1)NC(=O)[C@@H](Cc1ccccc1)NC(=O)[C@@H](Cc1c[nH]cn1)NC(=O)[C@@H](Cc1c[nH]c2ccccc12)NC(=O)CNC(=O)[C@@H](CCCCN)NC(=O)[C@H]1CCCN1C(=O)[C@H](NC(C)=O)C(C)C)C(=O)N[C@H](CO)C(=O)N[C@H](Cc1ccc(O)cc1)C(=O)N[C@H](CO)C(N)=O [compound 865, vpkGwhfhemsys] (Ac-[dV][dP][dK]G[dW][dH][dF][dH][dE][dM][dS][dY][dS]-NH2)"
5,75,"COc1ccc2[nH]cc(C[C@@H](NC(=O)CNC(=O)[C@@H](CCCCN)NC(=O)[C@H]3CCCN3C(=O)[C@H](NC(C)=O)C(C)C)C(=O)N[C@H](CCCNC(=N)N)C(=O)N[C@H](Cc3ccccc3)C(=O)N[C@H](Cc3c[nH]cn3)C(=O)N[C@H](CCC(=O)O)C(=O)N[C@H](CCSC)C(=O)N[C@H](CO)C(=O)N[C@H](Cc3ccc(O)cc3)C(=O)N[C@H](CO)C(N)=O)c2c1 [compound 861, vpkG(5-methoxy-D-Trp)rfhemsys]"
6,5.4,"CSCC[C@@H](NC(=O)[C@@H](CCC(=O)O)NC(=O)[C@@H](Cc1c[nH]cn1)NC(=O)[C@@H](Cc1cccs1)NC(=O)[C@@H](CCCNC(=N)N)NC(=O)[C@@H](Cc1c[nH]c2ccccc12)NC(=O)CNC(=O)[C@@H](CCCCN)NC(=O)[C@H]1CCCN1C(=O)[C@H](NC(C)=O)C(C)C)C(=O)N[C@H](CO)C(=O)N[C@H](Cc1ccc(O)cc1)C(=O)N[C@H](CO)C(N)=O [compound 868, vpkGwr(2-thienyl-D-Alanine)hemsys] (Ac-[dV][dP][dK]G[dW][dR][d2Thi][dH][dE][dM][dS][dY][dS]-NH2)"
7,400,"CSCC[C@@H](NC(=O)[C@@H](CC(=O)O)NC(=O)[C@@H](Cc1c[nH]cn1)NC(=O)[C@@H](Cc1ccccc1)NC(=O)[C@@H](CCCNC(=N)N)NC(=O)[C@@H](Cc1c[nH]c2ccccc12)NC(=O)CNC(=O)[C@@H](CCCCN)NC(=O)[C@H]1CCCN1C(=O)[C@H](NC(C)=O)C(C)C)C(=O)N[C@H](CO)C(=O)N[C@H](Cc1ccc(O)cc1)C(=O)N[C@H](CO)C(N)=O [compound 875, vpkGwrfhdmsys] (Ac-[dV][dP][dK]G[dW][dR][dF][dH][dD][dM][dS][dY][dS]-NH2)"
8,104 ± 72,"CC(C)[C@@H](N)C(=O)N1CCC[C@@H]1C(=O)N[C@H](CCCCN)C(=O)NCC(=O)N[C@H](Cc1c[nH]c2ccccc12)C(=O)N[C@H](CCCNC(=N)N)C(=O)N[C@H](Cc1ccccc1)C(=O)N[C@H](Cc1c[nH]cn1)C(=O)NCCCc1ccccc1 [compound 847, vpkGwrfh] (H-[dV][dP][dK]G[dW][dR][dF][dH]-{NH(CH2)3Ph})"
9,206,"CSCC[C@@H](NC(=O)[C@@H](CCC(=O)O)NC(=O)[C@@H](Cc1c[nH]cn1)NC(=O)[C@@H](Cc1ccccc1)NC(=O)[C@@H](CCCNC(=N)N)NC(=O)[C@@H](Cc1csc2ccccc12)NC(=O)CNC(=O)[C@@H](CCCCN)NC(=O)[C@H]1CCCN1C(=O)[C@H](NC(C)=O)C(C)C)C(=O)N[C@H](CO)C(=O)N[C@H](Cc1ccc(O)cc1)C(=O)N[C@H](CO)C(N)=O [compound 859, vpkG(3-benzothienyl-D-Alanine)rfhemsys] (Ac-[dV][dP][dK]G[dBta][dR][dF][dH][dE][dM][dS][dY][dS]-NH2)"
10,150,"CC(C)[C@@H](N)C(=O)N1CCC[C@@H]1C(=O)N[C@H](CCCCN)C(=O)NCC(=O)N[C@H](Cc1c[nH]c2ccccc12)C(=O)N[C@H](CCCNC(=N)N)C(=O)N[C@H](Cc1ccccc1)C(=O)N[C@H](Cc1c[nH]cn1)C(=O)O [847int, vpkGwrfh] (H-[dV][dP][dK]G[dW][dR][dF][dH]-OH)"
11,96,"CSCC[C@@H](NC(=O)[C@@H](CCC(=O)O)NC(=O)[C@@H](Cc1c[nH]cn1)NC(=O)[C@@H](Cc1ccccc1)NC(=O)[C@@H](CCCNC(=N)N)NC(=O)[C@@H](Cc1c[nH]c2ccc(O)cc12)NC(=O)CNC(=O)[C@@H](CCCCN)NC(=O)[C@H]1CCCN1C(=O)[C@H](NC(C)=O)C(C)C)C(=O)N[C@H](CO)C(=O)N[C@H](Cc1ccc(O)cc1)C(=O)N[C@H](CO)C(N)=O [compound 860, vpkG(5-hydroxy-D-Trp)rfhemsys]"

# Same assay, conditions: relative to the unmodified tetrapeptide
row,improvement of binding to MC1R by stearyl addition to the core tetrapeptide [fold],Compound
1,80,"CCCCCCCCCCCCCCCCCC(=O)N[C@@H](Cc1c[nH]cn1)C(=O)N[C@H](Cc1ccccc1)C(=O)N[C@@H](CCCNC(=N)N)C(=O)N[C@@H](Cc1c[nH]c2ccccc12)C(N)=O [compound 820, (Stearyl) HfRW]"
